From ChEMBL document CHEMBL1148964, “New furofuran and butyrolactone lignans with antioxidant activity from the stem bark of Styrax japonica” (J Nat Prod, 2004)

test system: Radical scavenging activity; assay: Antioxidant activity assessed as DPPH radical scavenging activity after 30 mins; type: functional

| Compound | IC50 |
| --- | --- |
| COc1ccc(C[C@@H]2C(=O)OC[C@H]2Cc2ccc(O[C@@H]3O[C@H](CO)[C@@H](O)[C@H](O)[C@H]3O)c(OC)c2)cc1OC [STYRAXLIGNOLIDE F] | > 500 µM |
| COc1cc(C[C@@H]2COC(=O)[C@H]2Cc2ccc(O[C@@H]3O[C@H](CO)[C@@H](O)[C@H](O)[C@H]3O)c(OC)c2)ccc1O [STYRAXLIGNOLIDE E] | 194 µM |
| CC1(C)CC[C@]2(C)CC=C3[C@]4(C)CC[C@H]5C(C)(C)[C@@H](O)CC[C@]5(C)[C@H]4CC[C@@]3(C)[C@@H]2C1 [TARAXEROL] | > 500 µM |
| Cc1c(C)c2c(c(C)c1O)CC[C@@](C)(CCC[C@H](C)CCC[C@H](C)CCCC(C)C)O2 [ALPHA-TOCOPHEROL] | 20.1 µM |
| COc1cc(/C=C/CO)cc(OC)c1O[C@@H]1O[C@H](CO)[C@@H](O)[C@H](O)[C@H]1O [SYRINGIN] | > 500 µM |

The next lines start with the values.

| IC50 | Compound |
| --- | --- |
| > 500 µM | COc1cc([C@@H]2OC[C@@H]3[C@H]2C(=O)O[C@H]3c2ccc3c(c2)OCO3)ccc1O[C@@H]1O[C@H](CO)[C@@H](O)[C@H](O)[C@H]1O [STYRAXLIGNOLIDE B] |
| 278 µM | COc1cc(C[C@@H]2C(=O)OC[C@H]2Cc2ccc(O[C@@H]3O[C@H](CO)[C@@H](O)[C@H](O)[C@H]3O)c(OC)c2)ccc1O [STYRAXLIGNOLIDE D] |
| 380 µM | COc1ccc(C[C@@H]2C(=O)OC[C@H]2Cc2ccc(O[C@@H]3O[C@H](CO)[C@@H](O)[C@H](O)[C@H]3O)c(OC)c2)cc1O [STYRAXLIGNOLIDE C] |
